# Laboratory results as given in the supplement of paper PMC10307832.
# Columns and labels:
# Test in all cases: relative viability (nuclei count vs DMSO), 5 days (fraction); higher = more cells survive
# [1] = compound: CN(C)CC1=CC(=CC=C1)N=C(C2=CC=CC=C2)C3=C(NC4=C3C=CC(=C4)C(=O)N(C)C)O + Cc1nc(Nc2ncc(C(=O)Nc3c(C)cccc3Cl)s2)cc(N2CCN(CCO)CC2)n1 [Dasatinib] (partner 0.075 µM)
# Procedure, shortened: (§1)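 Each reported value is a median over duplicate plates. It expresses relative viability: treated-well nuclei count divided by vehicle-well nuclei count. Lung cancer cell lines in 1536-well plates were dosed by pin tool a day after seeding, alone with one drug or with a fixed anchor-drug dose plus five library-drug doses (not always all listed) in √10 steps, and nuclei were counted after 5 days.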
# [2] = compound: CN(C)CC1=CC(=CC=C1)N=C(C2=CC=CC=C2)C3=C(NC4=C3C=CC(=C4)C(=O)N(C)C)O + Nc1nc2[nH]cc(CCc3ccc(C(=O)N[C@@H](CCC(=O)O)C(=O)O)cc3)c2c(=O)[nH]1 [Pemetrexed] (partner 0.2 µM)
# Procedure, shortened: as §1
# [3] = compound: CN(C)CC1=CC(=CC=C1)N=C(C2=CC=CC=C2)C3=C(NC4=C3C=CC(=C4)C(=O)N(C)C)O + C[C@@H](Oc1cc(-c2cnn(C3CCNCC3)c2)cnc1N)c1c(Cl)ccc(F)c1Cl [Crizotinib] (partner 1 µM)
# Procedure, shortened: as §1
# [4] = compound: CN(C)CC1=CC(=CC=C1)N=C(C2=CC=CC=C2)C3=C(NC4=C3C=CC(=C4)C(=O)N(C)C)O + CS(=O)(=O)CCNCc1ccc(-c2ccc3ncnc(Nc4ccc(OCc5cccc(F)c5)c(Cl)c4)c3c2)o1 [Lapatinib] (partner 2 µM)
# Procedure, shortened: as §1
Cell Line,relative viability ([1]; first compound 0.08 µM),relative viability ([1]; first compound 0.253 µM),relative viability ([1]; first compound 0.8 µM),relative viability ([1]; first compound 2.53 µM),relative viability ([1]; first compound 8 µM),relative viability ([2]; first compound 0.08 µM),relative viability ([2]; first compound 0.253 µM),relative viability ([2]; first compound 0.8 µM),relative viability ([2]; first compound 2.53 µM),relative viability ([2]; first compound 8 µM),relative viability ([3]; first compound 0.08 µM),relative viability ([3]; first compound 0.253 µM),relative viability ([3]; first compound 0.8 µM),relative viability ([3]; first compound 2.53 µM),relative viability ([3]; first compound 8 µM),relative viability ([4]; first compound 0.08 µM),relative viability ([4]; first compound 0.253 µM),relative viability ([4]; first compound 0.8 µM),relative viability ([4]; first compound 2.53 µM),relative viability ([4]; first compound 8 µM)
LU99A,0.578,0.646,0.611,0.401,0.373,0.171,0.173,0.228,0.156,0.185,0.565,0.551,0.61,0.513,0.411,1.06,1,1.01,0.922,0.756
HCC-15,0.613,0.602,0.652,0.643,0.662,0.232,0.22,0.208,0.235,0.226,0.778,0.832,0.882,0.889,0.888,0.891,0.821,0.947,0.776,0.924
HCC-827,0.382,0.25,0.203,0.294,0.236,0.266,0.241,0.25,0.229,0.269,0.919,0.909,0.923,0.879,0.868,0.218,0.191,0.197,0.191,0.191
NCI-H1734,0.473,0.46,0.441,0.394,0.39,0.405,0.441,0.436,0.398,0.436,0.7,0.651,0.597,0.667,0.557,1,1.08,1.02,1.02,0.881
NCI-H3122,0.686,0.867,0.846,0.844,0.951,0.19,0.207,0.196,0.191,0.186,0.281,0.286,0.246,0.318,0.29,0.96,0.971,1.01,0.983,0.997
PC-3 [JPC-3],1.01,1.03,0.911,0.914,0.992,1.08,1.04,0.665,1.08,1.28,0.968,0.983,0.824,0.985,1.07,0.436,0.458,0.435,0.465,0.444
NCI-H2087,0.953,0.835,0.914,0.794,0.793,0.629,0.644,0.617,0.721,0.68,0.817,0.838,0.828,0.72,0.872,1.08,0.835,1.1,0.942,1.05
201T,0.544,0.603,0.575,0.54,0.493,0.355,0.382,0.347,0.331,0.315,1.03,1.03,1.02,1.02,0.981,0.95,1.01,1.01,1.02,0.981
NCI-H1993,0.505,0.602,0.512,0.607,0.729,0.684,0.576,,0.495,0.634,0.761,0.845,0.628,0.89,0.876,1.09,0.882,0.827,0.826,0.706
NCI-H2085,0.226,0.285,0.257,0.252,0.278,0.87,0.948,0.832,0.908,0.901,0.849,0.903,0.702,0.947,1.03,0.791,0.844,0.758,0.758,0.733
BEN,0.307,0.284,0.396,0.487,0.336,0.778,0.79,0.707,0.78,0.795,0.791,0.739,0.866,0.876,0.641,0.734,0.647,0.72,0.685,0.656
RERF-LC-KJ,0.931,0.831,0.876,0.749,0.793,0.473,0.453,0.491,0.443,0.499,0.855,0.771,0.707,0.887,0.754,0.917,0.882,0.834,0.793,0.859
SK-MES-1,0.438,0.349,0.25,0.388,0.311,0.961,0.881,1,0.89,0.897,0.946,1.03,0.956,0.883,0.939,0.53,0.531,0.49,0.426,0.443
PC-14,0.289,0.273,0.324,0.247,0.197,0.13,0.13,0.147,0.15,0.135,0.948,0.885,0.842,0.786,1.01,0.33,0.264,0.38,0.313,0.311
NCI-H1563,0.437,0.489,0.579,0.389,0.411,0.829,0.665,0.782,0.741,0.698,0.872,0.871,0.833,0.846,0.771,1.04,0.894,0.815,0.683,0.817
NCI-H2009,0.238,0.328,0.349,0.333,0.253,0.982,0.993,1.08,1.03,0.957,1.11,1.03,1.09,1.01,1,1.07,0.98,1.03,0.813,0.886
LK-2,0.296,0.389,0.25,0.328,0.275,0.286,0.253,0.236,0.269,0.211,0.249,0.21,0.264,0.256,0.216,1.05,0.97,0.898,0.841,0.637
NCI-H838,0.304,0.304,0.247,0.281,0.284,0.247,0.243,0.23,0.213,0.253,0.825,0.784,0.861,0.659,0.755,0.972,1.01,1.08,0.895,0.685
HCC-44,,,,,,0.691,0.583,0.693,0.598,0.716,0.801,0.752,0.785,0.727,0.89,0.953,1.03,0.986,0.937,1.03

Cell Line,relative viability ([1]; first compound 0.08 µM),relative viability ([1]; first compound 0.253 µM),relative viability ([1]; first compound 0.8 µM),relative viability ([1]; first compound 2.53 µM),relative viability ([1]; first compound 8 µM),relative viability ([2]; first compound 0.08 µM),relative viability ([2]; first compound 0.253 µM),relative viability ([2]; first compound 0.8 µM),relative viability ([2]; first compound 2.53 µM),relative viability ([2]; first compound 8 µM),relative viability ([3]; first compound 0.08 µM),relative viability ([3]; first compound 0.253 µM),relative viability ([3]; first compound 0.8 µM),relative viability ([3]; first compound 2.53 µM),relative viability ([3]; first compound 8 µM),relative viability ([4]; first compound 0.08 µM),relative viability ([4]; first compound 0.253 µM),relative viability ([4]; first compound 0.8 µM),relative viability ([4]; first compound 2.53 µM),relative viability ([4]; first compound 8 µM)
LC-2-ad,0.697,0.593,0.751,0.409,0.44,0.275,0.263,0.275,0.288,0.277,0.406,0.402,0.486,0.4,0.441,1.03,0.893,0.879,0.876,0.981
NCI-H1755,0.487,0.45,0.374,0.402,0.348,0.351,0.404,0.371,0.364,0.423,0.792,0.897,0.789,0.758,0.825,1.09,0.98,1.02,0.935,1.07
NCI-H1944,0.216,0.234,0.219,0.179,0.156,0.607,0.571,0.615,0.512,0.537,1.06,1.04,1.06,1.08,1.11,0.805,0.835,0.924,0.755,0.765
CAL-12T,0.488,0.48,0.421,0.363,0.304,1.17,1.22,1.14,1.34,1.25,0.665,0.592,0.778,0.611,0.612,,0.746,0.878,,0.755
NCI-H661,0.979,0.747,0.679,0.8,0.856,0.867,0.901,0.935,0.928,0.907,,0.981,1.03,0.862,0.994,0.502,0.433,0.559,0.472,0.291
NCI-H1648,,,,,,0.717,0.758,,0.739,0.668,,,,,,,,,,
SW 900,0.364,0.582,0.55,0.622,0.573,0.439,0.495,0.497,0.535,0.445,,,,,,,,,,
ABC-1,0.619,0.617,0.557,0.605,0.577,,,,,,1.17,1.12,1.01,0.764,0.891,1.19,1.13,1.02,0.827,0.938
IA-LM,,,,,,,,,,,0.937,0.797,0.906,0.926,1.04,0.781,0.916,0.872,0.948,1.07
NCI-H1793,0.438,0.387,,0.425,0.411,0.901,0.872,0.553,0.791,0.823,,,,,,0.79,0.665,0.569,0.823,0.891
NCI-H1395,0.402,0.373,0.455,0.433,0.399,0.915,0.931,0.992,0.763,0.834,,,,,,0.948,1.14,1.2,0.892,0.943
NCI-H522,0.938,0.97,0.788,0.837,0.982,1.03,1.04,0.763,1.07,0.817,,,,,,,,,,
A549,,,,,,,,,,,0.847,0.683,0.818,0.686,0.731,0.962,1.01,1.02,0.945,0.934
Calu-6,,,,,,,,,,,0.758,0.749,0.762,0.814,0.859,1.13,1.01,1.02,1.07,1.03
LCLC-103H,0.482,0.487,0.435,0.42,0.497,0.47,0.442,0.555,0.458,0.456,1.14,1.06,0.914,1.02,0.979,,,,,
NCI-H727,0.357,0.374,0.382,0.54,0.509,,,,,,0.772,0.808,0.78,0.795,0.699,0.7,0.855,0.834,0.734,0.665
NCI-H441,0.521,0.68,0.529,0.582,0.505,0.264,0.274,0.237,0.258,0.291,0.463,0.748,1.04,0.627,0.629,,,,,
ChaGo-K-1,0.579,0.61,0.601,0.567,0.582,0.251,0.267,0.259,0.258,0.265,1.18,1.1,1.1,,1.11,,,,,
NCI-H1703,,,,,,,,,,,0.65,0.591,0.715,0.341,0.138,1.12,1.22,1.48,0.762,0.296
